Activity calls are given as the source filed them. No cut-off for these calls is given here.

The values below come from ChEMBL document CHEMBL5316381, “Discovery of [1,2,3]Triazolo[4,5-c]quinoline Derivatives as a New Class of Ataxia-Telangiectasia Mutated Kinase Inhibitors” (ACS Med Chem Lett, 2023).

For assay [1], the system named is SW-620. In words: Induction of apoptosis in human SW620 cells assessed as late apoptotic cells at 1 uM measured after 72 hrs by Annexin V-FITC staining based flow cytometric analysis (reference value: 5.75%). It is filed as functional. For orientation: In flow cytometry, cells or beads pass a laser one at a time.
Assay [2] concerns SW-620. In words: Induction of apoptosis in human SW620 cells assessed as viable cells at 1 uM measured after 72 hrs by Annexin V-FITC staining based flow cytometric analysis (reference value: 87.36%). The note with it: read-out: Activity. In kind it is functional.
In assay [3] the target is Serine-protein kinase ATM (Homo sapiens, UniProt Q13315). Put plainly: Inhibition of ATM in human SW620 cells assessed as increase in gamma H2AX foci at 1 uM incubated for 24 hrs by confocal microscopic analysis. In kind it is cell-based.
Chain of Serine-protein kinase ATM (Q13315 whole entry): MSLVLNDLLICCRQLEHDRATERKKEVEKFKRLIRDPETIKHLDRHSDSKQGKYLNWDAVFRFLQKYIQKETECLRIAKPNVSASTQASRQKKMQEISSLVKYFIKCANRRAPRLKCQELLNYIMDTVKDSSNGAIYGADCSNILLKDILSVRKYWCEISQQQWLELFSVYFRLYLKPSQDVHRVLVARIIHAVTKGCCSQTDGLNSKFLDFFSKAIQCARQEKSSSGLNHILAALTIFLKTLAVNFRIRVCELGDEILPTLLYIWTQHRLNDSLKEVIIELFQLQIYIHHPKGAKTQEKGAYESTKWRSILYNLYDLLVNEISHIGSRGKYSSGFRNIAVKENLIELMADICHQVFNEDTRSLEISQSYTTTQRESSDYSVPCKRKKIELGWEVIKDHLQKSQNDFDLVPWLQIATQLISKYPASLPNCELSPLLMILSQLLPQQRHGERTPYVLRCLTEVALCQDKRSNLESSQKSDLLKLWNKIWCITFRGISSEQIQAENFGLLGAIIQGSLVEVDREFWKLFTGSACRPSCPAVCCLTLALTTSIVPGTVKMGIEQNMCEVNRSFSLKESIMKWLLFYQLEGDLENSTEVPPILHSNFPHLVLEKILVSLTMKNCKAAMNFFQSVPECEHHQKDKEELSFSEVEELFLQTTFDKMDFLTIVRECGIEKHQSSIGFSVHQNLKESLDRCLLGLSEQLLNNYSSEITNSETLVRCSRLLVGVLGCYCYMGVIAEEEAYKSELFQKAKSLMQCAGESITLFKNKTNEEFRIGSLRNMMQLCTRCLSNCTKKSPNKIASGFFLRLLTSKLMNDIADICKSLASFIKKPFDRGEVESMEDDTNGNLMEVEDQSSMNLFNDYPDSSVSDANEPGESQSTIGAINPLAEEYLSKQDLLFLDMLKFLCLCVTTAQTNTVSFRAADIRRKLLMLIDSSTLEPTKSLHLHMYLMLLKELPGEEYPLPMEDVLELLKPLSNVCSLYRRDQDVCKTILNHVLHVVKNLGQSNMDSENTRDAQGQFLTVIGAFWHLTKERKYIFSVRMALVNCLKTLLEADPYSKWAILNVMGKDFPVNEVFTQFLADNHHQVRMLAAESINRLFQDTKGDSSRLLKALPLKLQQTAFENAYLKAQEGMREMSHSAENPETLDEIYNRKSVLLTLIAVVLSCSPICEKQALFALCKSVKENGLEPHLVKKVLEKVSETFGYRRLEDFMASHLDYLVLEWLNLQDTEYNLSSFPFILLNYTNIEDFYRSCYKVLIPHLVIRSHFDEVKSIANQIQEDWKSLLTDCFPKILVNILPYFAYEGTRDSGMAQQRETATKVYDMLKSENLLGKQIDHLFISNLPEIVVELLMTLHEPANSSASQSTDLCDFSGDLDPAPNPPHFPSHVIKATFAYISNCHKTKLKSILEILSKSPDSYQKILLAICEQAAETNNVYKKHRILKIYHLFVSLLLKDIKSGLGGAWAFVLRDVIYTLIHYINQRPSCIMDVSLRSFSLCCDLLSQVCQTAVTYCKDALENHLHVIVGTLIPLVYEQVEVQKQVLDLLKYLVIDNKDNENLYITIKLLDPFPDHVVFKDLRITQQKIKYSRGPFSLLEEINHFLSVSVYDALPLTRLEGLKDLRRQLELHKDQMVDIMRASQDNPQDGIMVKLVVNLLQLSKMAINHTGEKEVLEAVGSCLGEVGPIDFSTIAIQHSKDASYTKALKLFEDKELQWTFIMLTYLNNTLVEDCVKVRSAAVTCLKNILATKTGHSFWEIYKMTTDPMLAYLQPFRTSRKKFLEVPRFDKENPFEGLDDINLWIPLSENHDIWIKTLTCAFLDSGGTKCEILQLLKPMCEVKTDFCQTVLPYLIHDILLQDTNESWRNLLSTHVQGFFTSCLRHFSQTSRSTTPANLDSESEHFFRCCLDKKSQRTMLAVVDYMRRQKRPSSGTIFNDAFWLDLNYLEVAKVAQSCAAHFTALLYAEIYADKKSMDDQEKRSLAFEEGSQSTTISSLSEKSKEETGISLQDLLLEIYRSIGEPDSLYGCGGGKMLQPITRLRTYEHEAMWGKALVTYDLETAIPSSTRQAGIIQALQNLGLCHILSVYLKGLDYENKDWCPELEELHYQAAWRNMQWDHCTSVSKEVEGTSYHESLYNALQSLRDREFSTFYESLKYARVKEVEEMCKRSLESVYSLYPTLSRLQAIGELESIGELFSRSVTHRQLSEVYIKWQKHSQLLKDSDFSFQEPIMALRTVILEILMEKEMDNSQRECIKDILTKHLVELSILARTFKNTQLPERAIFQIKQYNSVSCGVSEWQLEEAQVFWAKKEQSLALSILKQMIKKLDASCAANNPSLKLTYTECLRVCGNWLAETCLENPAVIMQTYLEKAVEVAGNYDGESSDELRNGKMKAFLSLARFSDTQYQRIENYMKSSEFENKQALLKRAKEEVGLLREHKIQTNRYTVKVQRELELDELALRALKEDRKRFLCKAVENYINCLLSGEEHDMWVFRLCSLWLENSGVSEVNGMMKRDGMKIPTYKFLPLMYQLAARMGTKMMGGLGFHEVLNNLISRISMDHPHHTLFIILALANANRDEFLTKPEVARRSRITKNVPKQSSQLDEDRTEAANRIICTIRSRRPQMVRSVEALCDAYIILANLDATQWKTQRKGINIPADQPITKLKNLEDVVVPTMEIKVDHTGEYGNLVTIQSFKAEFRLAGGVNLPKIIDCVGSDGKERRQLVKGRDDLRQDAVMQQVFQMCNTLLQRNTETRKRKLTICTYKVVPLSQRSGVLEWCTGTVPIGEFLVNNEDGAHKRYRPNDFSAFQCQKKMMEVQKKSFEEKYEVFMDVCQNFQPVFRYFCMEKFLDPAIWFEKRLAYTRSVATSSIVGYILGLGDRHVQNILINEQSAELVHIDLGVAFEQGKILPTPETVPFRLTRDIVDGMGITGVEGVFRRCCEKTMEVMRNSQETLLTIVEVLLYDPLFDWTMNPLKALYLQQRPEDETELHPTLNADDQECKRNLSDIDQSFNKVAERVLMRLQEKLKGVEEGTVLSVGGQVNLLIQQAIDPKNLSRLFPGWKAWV
The subject of assay [4] is SW-620. In words: Induction of apoptosis in human SW620 cells assessed as early apoptotic cells at 1 uM measured after 72 hrs by Annexin V-FITC staining based flow cytometric analysis (reference value: 1.06%). It is filed as functional.
The test system of assay [5] is SW-620. In words: Cell cycle arrest in human SW620 cells assessed as accumulation of cells at G2/M phase at 1 uM incubated for 24 hrs by PI staining based flow cytometric analysis. It is filed as functional.
The subject of assay [6] is SW-620. In words: Induction of apoptosis in human SW620 cells assessed as necrotic cells at 1 uM measured after 72 hrs by Annexin V-FITC staining based flow cytometric analysis (reference value: 5.83%). It is filed as functional.
The test system of a further assay is HCT-116. In words: Anticancer activity against human HCT-116 cells assessed as reduction in cell viability incubated for 5 days by MTT assay. It is filed as functional, cell-based. The following applies: HCT-116, 120 h. (Tetrazolium assays rely on reduction of a dye to a coloured formazan, in cell work by metabolically active cells.)
In assay [7] the test system is SW-620. Put plainly: Anticancer activity against human SW620 cells assessed as reduction in cell viability incubated for 5 days by MTT assay. It is filed as functional, cell-based. The following applies: SW-620, 120 h.

Take `CCc1c2c(nc3ccc(OC(=O)N4CCC(N5CCCCC5)CC4)cc13)-c1cc3c(c(=O)n1C2)COC(=O)[C@]3(O)CC` [IRINOTECAN]: the Activity in the assay with SW-620 [1] is listed as 21.89%; in the assay with SW-620 [4], 4.61%; with SW-620 [6], 6.2%. Besides, the viability at 1 µM with SW-620 [2] was 67.3%. Also, in assay [3], the inhibition result is “Active”. The result in the assay on SW-620 [5] was Active. The IC50 was found to be 910 nM in the assay on HCT-116 and 140 nM in the assay on SW-620 [7].

By IC50 is commonly meant the concentration that inhibits the measured activity by half.
